Measurements from patent US20090062240A1, “Pharmaceutical combinations containing an inhibitor of platelet aggregation and a fibrate” (Fournier Laboratories Ireland Limited, priority 2004, published 2009).

Tested on: rat platelet aggregation
Assay: Ex-vivo rat platelet aggregation induced by arachidonic acid after oral treatment (Born's method, PRP)
Assay type: in vivo
Details: for % aggregation upon addition of 1 mM arachidonic acid: rat PRP, mean, n = 8; for reduction in platelet aggregation (in words): 1 mM arachidonic acid
Procedure: A study was carried out to assess the effect of a combination of a fibrate (fenofibrate) and aspirin on platelet aggregation in this study, fenofibrate and aspirin were co-administered to rats by the oral route (p.o.) and the effects on arachidonic acid-induced platelet aggregation were observed.
40 male OFA-SD (IOPS Caw) rats (C.River, France), weighing in the target range of 300 to 350 g, were included in the study.
They were housed in a temperature (19.5-24.5° C.) and relative humidity (45-65%) controlled room with a 12-h light/dark cycle, with ad libitum access to filtered tap-water and standard pelleted laboratory chow (SAFE, France) throughout the study. Upon receipt at animal facilities, they were housed 4 per cage and at least a 5-day acclimatization period was observed. Animals were individually identified on the tail.
The animals of this study were split into 5 groups of 8 animals as follows:
Group 2: Fenofibrate, 300 mg/kg, p.o.×10 days
Group 3 Aspirin 3 mg/kg, p.o.×1 day
Group 4: Fenofibrate, 300 mg/kg, p.o×10 days+Aspirin 3 mg/kg, p.o.×1 day
Group 5: Aspirin 30 mg/kg, p.o.×1 day
At the end of the acclimatization period, rats were identified on the tail and divided into 10 boxes of 4 rats.
They were then weighed and treated orally once a day during ten consecutive days with the vehicle (1% methylcellulose aqueous solution) or the test substance fenofibrate. On the last day of treatment, the animals were also treated with aspirin as described above. Aspirin (acetyl saliclylic acid) was obtained from Sigma, France and fenofibrate was supplied by Laboratoires Fournier, France. Test substances and the vehicle were administered by p.o. route once a day, in a volume of 5 ml/kg adjusted to the animal weight measured every day before administration.
On the last day of treatment (day 10), 2 hours after the oral gavage, rats were anaesthetised with isoflurane, and blood samples were collected from the abdominal aorta into plastic tubes containing heparin.
PRP (platelet-rich plasma) was then produced by centrifuging the blood obtained at 250 g for 10 minutes using a GPKR centrifuge (Beckman, France). Then samples were then centrifuged again at 2000 g for 10 minutes to obtain the platelet-poor plasma (PPP).
After a platelet count, each PRP sample was adjusted to 6×10^8 platelets/mL with the needed volume of homologous PPP (using T540 Cell Counter, Beckman, France).
Platelet aggregation was recorded using Born's method (Born, Nature, 1962, 194, 927-929) with 0.3 mL of the platelet suspension in disposable glass cuvettes placed in the turbidometric aggregometer (Chrono-Dual 440 aggregometer, Beckman Coulter, France) and stirred at 1100 rev.min^−1 at 37° C.
Platelet aggregation was induced by Arachidonic acid [AA] for each PRP sample tested.
Results were reported as the aggregation amplitude measured in mm and expressed as percentage of maximal aggregation.
Statistical analysis consisted in a one-way analysis of variance followed by multiple comparisons versus the vehicle group (Dunnett's test) on % aggregation values. Where the equal variance test failed, a Kruskall-Wallis one-way analysis of variance on ranks was proposed. A difference is considered significant for p<0.05.

CC(C)OC(=O)C(C)(C)Oc1ccc(C(=O)c2ccc(Cl)cc2)cc1 [Fenofibrate, 2-[4-(4-chlorobenzoyl)phenoxy]-2-methyl-propanoic acid, 1-methylethyl ester]
% aggregation upon addition of 1 mM arachidonic acid (Fenofibrate 300 mg/kg p.o. x 10 days, blood 2 h after last gavage): 94.2%
reduction in platelet aggregation (in words) (fenofibrate alone (300 mg/kg)): no reduction in platelet aggregation

CC(=O)Oc1ccccc1C(=O)O [Aspirin, Acetylsalicylic acid]
% aggregation upon addition of 1 mM arachidonic acid (Aspirin 3 mg/kg p.o. x 1 day, blood 2 h after gavage): 85.0%
% aggregation upon addition of 1 mM arachidonic acid (Aspirin 30 mg/kg p.o. x 1 day, p < 0.05 vs Control): 0.4%
reduction in platelet aggregation (in words) (aspirin alone at 3 mg/kg): no reduction in platelet aggregation
